Laboratory results from PMC11597085 (Molecules, 2024).
Where two headings read alike, the source gives them in different places.

Tests used:
[1] = Chemical stability in water (10 mM) at 60 °C by HPLC; assay type: physicochemical; details: for Chemical stability, Initial (%): HPLC AUC, 0 h set to 100%; for Chemical stability, 24 h / Chemical stability, 48 h / Chemical stability, 76 h / Chemical stability, 164 h / Chemical stability, 330 h: storage at 60 °C, HPLC
Procedure: For this purpose, high-performance liquid chromatography (HPLC) was employed to measure any changes in these species upon storage at 60 °C (Table 1).

[2] = DPPH radical scavenging assay; assay type: biochemical; details: methanol, 30 min, RT, dark
Procedure: The mixture was then kept in the dark at RT for 30 min. Afterward, the absorbance was measured at 540 nm.

BACE-1 = molecular target: T1, BACE-1 (Homo sapiens, UniProt P56817); assay: BACE-1 FRET inhibition assay; assay type: biochemical
T1 construct: purchased PanVera Corp. / Thermo Fisher Scientific P2985
T1 sequence (P56817 46-501): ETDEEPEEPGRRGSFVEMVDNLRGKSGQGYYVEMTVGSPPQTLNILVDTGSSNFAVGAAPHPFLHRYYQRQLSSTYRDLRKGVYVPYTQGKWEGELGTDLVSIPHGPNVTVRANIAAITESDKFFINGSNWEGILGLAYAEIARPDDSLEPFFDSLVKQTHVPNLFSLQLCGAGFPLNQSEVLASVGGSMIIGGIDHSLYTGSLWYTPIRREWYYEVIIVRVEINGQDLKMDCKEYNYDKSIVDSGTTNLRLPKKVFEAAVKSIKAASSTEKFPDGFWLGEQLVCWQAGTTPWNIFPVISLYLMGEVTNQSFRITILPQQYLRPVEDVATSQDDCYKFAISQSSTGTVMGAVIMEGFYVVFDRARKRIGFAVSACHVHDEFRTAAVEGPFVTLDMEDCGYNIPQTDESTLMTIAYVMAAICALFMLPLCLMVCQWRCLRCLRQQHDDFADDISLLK
Procedure: A BACE-1 inhibition assay was performed using a β-Secretase FRET kit (BACE-1, Thermo Fisher Scientific, San Diego, CA, USA) following the manufacturer’s instructions. […] In black 96-well microplates, 10 µL of the BACE-1 substrate was added to the diluted samples. The reaction was initiated by adding 10 µL of 3× BACE-1 enzyme to each well. The plates were incubated for 60 min at RT in the dark. After incubation, the reaction was stopped by adding 10 µL of 2.5 mM sodium acetate to each well. […] The IC50 value was determined by plotting the relative fluorescence units per hour (RFU/h) against the logarithmic inhibitor concentrations. All experiments were conducted in triplicate.

[3] = tested on: phosphorylated tau (P-tau); assay: P-tau level ELISA in SH-SY5Y cells; details: Homo sapiens, 24 h, read-out: P-tau inhibition
Procedure: SH-SY5Y cells were grown in a complete growth medium comprising Dulbecco’s Modified Eagle Medium (DMEM) supplemented with 10% fetal bovine serum (FBS) and 1% penicillin/streptomycin. For treatment, adherent SH-SY5Y cells were plated in 96-well plates at a density of 2 × 10^6 cells per well. Levosimendan (Sigma, St. Louis, MO, USA) was used as an inhibitor to verify the effect on tau inhibition. Upon treatment with 20 μM of each substance, the cells were cultured for 24 h. The supernatant was then collected and used in subsequent ELISA assays.
The tau levels were assessed using a Human Tau ELISA kit (Abcam, Cambridge, UK). After treatment, the supernatant was diluted five times. The diluted supernatant, capture antibody, and detection antibody were mixed in a 2:1:1 ratio and incubated for 1 h. The wells were then washed three times with a wash buffer. After removing the buffer, 100 µL of 3,3′,5,5′-tetramethylbenzidine developer was added and incubated for 10 min, followed by the addition of 100 µL stop solution. The optical density was measured at 450 nm. Data analysis was performed by calculating the mean and standard deviation using GraphPad Prism 8 (GraphPad, San Diego, CA, USA).

[4] = Stability of Ramalin in water vs deoxygenated water (10 mM, 48 h, 25 °C); assay type: physicochemical
From the text: This is evidenced by the increased stability when dissolved in deoxygenated water compared to water containing dissolved oxygen. […] We attempted modifications by introducing a methyl group into phenyl hydrazine to prevent conversion into the azo form or by linking the phenyl group to a benzophenone structure to block electron flow and mitigate oxidation, thereby enhancing stability.

NLRP3 = NLRP3 ELISA in LPS-induced RAW264.7 cells; assay type: cell-based, murine; details: 25 µM (method: 20 µM), LPS 0.5 µg/mL, 24 h
From the text: The induced cytokines further contribute to AD pathology by hyperphosphorylation of the tau protein [19]. Additionally, the activation of NLRP3 has been implicated in the pathogenesis of AD [20, 21], and this inflammatory response fosters the generation of Aβ and tau, ultimately contributing to disease progression. Thus, to determine the anti-inflammatory activities of the prepared derivatives, we measured the inhibition of nitrogen oxide (NO) and NLRP3 in LPS-induced RAW264.7 cells. The active concentration for activity assessment was established as 25 µM, at which cell viability had been previously confirmed.
RAW 264.7 macrophages were seeded at a density of 5 × 10^5 cells/well in 96-well plates and treated with 20 µM of RA-Hyd-Me, RA-Hyd-Me-tol, RA-Benzo, and RA-Sali for 1 h and then stimulated with 0.5 μg/mL LPS for 24 h. Culture supernatant levels of NOD-like receptor pyrine domain containing-3 (NLRP3) were determined using a commercially available ELISA kit (Lsbio, Seattle, WA, USA) and following the instructions of the manufacturer. The absorbance of the plate was read at a wavelength of 450 nm. NLRP3 was determined from a standard curve. The concentrations were expressed as ng/mL. To obtain statistical significance, all experiments were carried out in duplicate.

[5] = molecular target: T2, acetylcholinesterase (AChE) (Electrophorus electricus, UniProt O42275); assay: biochemical
T2 construct: purchased Sigma-Aldrich C3389
T2 sequence (O42275 24-633): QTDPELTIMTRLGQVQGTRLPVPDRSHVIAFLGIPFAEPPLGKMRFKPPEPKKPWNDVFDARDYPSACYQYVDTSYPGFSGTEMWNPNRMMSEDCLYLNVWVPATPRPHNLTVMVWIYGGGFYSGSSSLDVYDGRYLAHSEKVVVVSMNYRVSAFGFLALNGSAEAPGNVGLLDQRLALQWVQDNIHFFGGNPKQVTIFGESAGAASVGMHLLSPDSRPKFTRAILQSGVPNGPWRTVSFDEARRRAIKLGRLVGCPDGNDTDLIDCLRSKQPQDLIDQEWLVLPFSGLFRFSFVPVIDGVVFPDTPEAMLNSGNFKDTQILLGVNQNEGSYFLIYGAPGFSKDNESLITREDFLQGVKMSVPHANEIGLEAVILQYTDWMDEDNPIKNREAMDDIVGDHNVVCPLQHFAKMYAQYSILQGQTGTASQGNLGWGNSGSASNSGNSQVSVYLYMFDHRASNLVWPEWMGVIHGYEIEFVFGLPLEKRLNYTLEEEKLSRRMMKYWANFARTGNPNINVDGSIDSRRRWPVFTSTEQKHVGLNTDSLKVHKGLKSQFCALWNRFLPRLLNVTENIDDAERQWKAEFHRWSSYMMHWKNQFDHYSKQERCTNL

[6] = FRET kit, 60 min, RT, triplicate, read-out: BACE-1 IC50

Structure (SMILES) | Chemical stability, Initial (%) [1] | Chemical stability, 24 h [1] | Chemical stability, 48 h [1] | Chemical stability, 76 h [1] | Chemical stability, 164 h [1] | Chemical stability, 330 h [1] | IC50 [2] | IC50 (BACE-1) | inhibition at 20 µM [3] | Ramalin remained in deoxygenated water ([4]; deoxygenated water) | Ramalin remained in regular water ([4]; regular water) | IC50 (BACE-1; [6]) | NLRP3 inhibitory activity (NLRP3) | inhibition at 50 µM [5]
CN(NC(=O)CC[C@H](N)C(=O)O)c1ccccc1 [RA-Hyd-Me, N^5-(methyl(phenyl)amino)-L-glutamine] | 100% | 97.5% | 94.5% | 91.1% | 80.3% | 65.4% | 14.4 µM | 15.5 ± 5.8 µM | 10 to 15% |  |  |  |  | 
N[C@@H](CCC(=O)NNc1ccccc1O)C(=O)O [Ramalin, reference compound] | 100% ^1 | 35.1% ^2 | 17.1% | 7.6% |  |  |  |  |  | 92% | about 53% |  |  | 
Cl.N[C@@H](CCC(=O)NNC(=O)c1ccccc1O)C(=O)O [RA-Sali, N^5-(2-hydroxybenzamido)-L-glutamine hydrochloride] | 100% | 99.6% | 96.7% | 93.3% | 82.6% | 69.1% |  |  | ~40% |  |  | 8.44 ± 5.16 µM | ~ 25% | 7.8%
Cl.N[C@@H](CCC(=O)NNC(=O)c1ccccc1)C(=O)O [RA-Benzo, N^5-benzamido-L-glutamine hydrochloride] | 100% | 97.2% | 94.4% | 91.5% | 82.5% | 68.0% |  |  | 10 to 15% |  |  | 144 ± 87.1 µM |  | 
Cc1cccc(N(C)NC(=O)CC[C@H](N)C(=O)O)c1 [RA-Hyd-Me-Tol, N^5-(methyl(m-tolyl)amino)-L-glutamine] | 100% | 97.5% | 94.6% | 91.0% | 80.0% | 63.4% | 12.4 µM |  | 10 to 15% |  |  | 22.5 ± 1.76 µM |  | 
